From ChEMBL document CHEMBL1201862, “PubChem BioAssay data set” (2004)
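Cells were grown in 96-well plates and exposed to each compound for 48 hours at five concentrations; endpoints were interpolated linearly between bracketing concentrations, or set to the highest concentration if not reached. The concentration for 50% growth inhibition is given as GI50.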 Active and inactive are the calls of the source. Cut-off read from the data, not from the text of the source: active = GI50 up to about 1.1 µM and inactive = higher. Where a SMILES comes first, the peptide text is derived from it. [ ]: non-standard residue; d: D form. The star is where a group is joined. Phe(4-NO2) = N[CH](Cc1ccc([N+](=O)[O-])cc1)C(=O)O; Boc = CC(C)(C)OC(=O)*; OtBu = CC(C)(C)O*

Legend:
Experiment in all cases: inhibition of tumour cell growth, NCI panel, 48 h
786-0 = tested on: 786-0
M14 = tested on: M14
PC-3 = tested on: PC-3
SK-MEL-2 = tested on: SK-MEL-2
HCC 2998 = tested on: HCC 2998
SW-620 = tested on: SW-620
OVCAR-8 = tested on: OVCAR-8
U-251 = tested on: U-251
CAKI-1 = tested on: CAKI-1
UACC-257 = tested on: UACC-257
HT-29 = tested on: HT-29
OVCAR-4 = tested on: OVCAR-4
RXF 393 = tested on: RXF 393
A549 = tested on: A549
SK-MEL-5 = tested on: SK-MEL-5
Malme-3M = tested on: Malme-3M
HOP-92 = tested on: HOP-92
NCI-H23 = tested on: NCI-H23
SK-OV-3 = tested on: SK-OV-3
MDA-MB-231 = tested on: MDA-MB-231

| SMILES | GI50 (786-0) | GI50 (M14) | GI50 (PC-3) | GI50 (SK-MEL-2) | GI50 (HCC 2998) | GI50 (SW-620) | GI50 (OVCAR-8) | GI50 (U-251) | GI50 (CAKI-1) | GI50 (UACC-257) | GI50 (HT-29) | GI50 (OVCAR-4) | GI50 (RXF 393) | GI50 (A549) | GI50 (SK-MEL-5) | GI50 (Malme-3M) | GI50 (HOP-92) | GI50 (NCI-H23) | GI50 (SK-OV-3) | GI50 (MDA-MB-231) |
| --- | --- | --- | --- | --- | --- | --- | --- | --- | --- | --- | --- | --- | --- | --- | --- | --- | --- | --- | --- | --- |
| Cn1c(=O)c2c(nc3n2CC(C(=O)O)N3)n(C)c1=O (stereo not given) | > 100 µM (inactive) | > 100 µM (inactive) | > 100 µM (inactive) | > 100 µM (inactive) | > 100 µM (inactive) | > 100 µM (inactive) | > 100 µM (inactive) | > 100 µM (inactive) | > 100 µM (inactive) | > 100 µM (inactive) | > 100 µM (inactive) | > 100 µM (inactive) | > 100 µM (inactive) | > 100 µM (inactive) | > 100 µM (inactive) | > 100 µM (inactive) | > 100 µM (inactive) | > 100 µM (inactive) | > 100 µM (inactive) | > 100 µM (inactive) |
| COC(C)(C)OCCN1CCN(CCN2C3=C(C=C(C(C)=O)C3)Sc3ccccc32)CC1 | 19.1 µM (inactive) | 20.3 µM (inactive) | 24.8 µM (inactive) | 20.2 µM (inactive) | 20.4 µM (inactive) | 17.5 µM (inactive) | 20.9 µM (inactive) | 18.5 µM (inactive) | 19.2 µM (inactive) | 20.3 µM (inactive) | 18 µM (inactive) | 28.6 µM (inactive) | 17.9 µM (inactive) | 32.6 µM (inactive) | 17.5 µM (inactive) | 21.3 µM (inactive) | 29.5 µM (inactive) | 27.2 µM (inactive) | 35.8 µM (inactive) | 22.3 µM (inactive) |
| COc1cccc2c(N)c3cccc(C(=O)NCCN(C)C)c3nc12 | 0.0339 µM (active) | 0.432 µM (active) | 0.326 µM (active) | 0.447 µM (active) | 0.179 µM (active) | 0.0968 µM (active) | 0.134 µM (active) | 0.159 µM (active) | 0.103 µM (active) | 0.701 µM (active) | 0.053 µM (active) | 0.157 µM (active) | 0.213 µM (active) | 0.0233 µM (active) | 0.367 µM (active) | 0.0927 µM (active) | 0.163 µM (active) | 0.132 µM (active) | 0.233 µM (active) | 0.214 µM (active) |
| O=C(O)C1OC1(c1cccc(Cl)c1)c1ccccc1Cl (stereo not given) | 43.1 µM (inactive) | 18.8 µM (inactive) | 21.8 µM (inactive) | 15.7 µM (inactive) | 25.9 µM (inactive) | 20.7 µM (inactive) | 32.1 µM (inactive) | 11.1 µM (inactive) | 20.5 µM (inactive) | 26.6 µM (inactive) | 25.9 µM (inactive) | 23.5 µM (inactive) | 27.4 µM (inactive) | 35.8 µM (inactive) | 20 µM (inactive) | 19.7 µM (inactive) | 23.1 µM (inactive) | 20.8 µM (inactive) | 22.5 µM (inactive) | 18.1 µM (inactive) |
| CC(=O)N1CC(=O)N2C(=O)/C(=C/c3ccc(Cl)cc3)N=C12 | > 100 µM (inactive) | > 100 µM (inactive) | > 100 µM (inactive) | > 100 µM (inactive) | > 100 µM (inactive) | > 100 µM (inactive) | > 100 µM (inactive) | > 100 µM (inactive) | > 100 µM (inactive) | > 100 µM (inactive) | > 100 µM (inactive) | > 100 µM (inactive) | > 100 µM (inactive) | > 100 µM (inactive) | > 100 µM (inactive) | > 100 µM (inactive) | > 100 µM (inactive) | > 100 µM (inactive) | > 100 µM (inactive) | > 100 µM (inactive) |
| COc1ccc2cc(CNCCOCCOCCNCc3ccc4cc(OC)ccc4c3)ccc2c1 | 0.953 µM (active) | 0.26 µM (active) | 1.54 µM (inactive) | 1.53 µM (inactive) | 0.104 µM (active) | 0.348 µM (active) | 1.49 µM (inactive) | 1.31 µM (inactive) | 1.61 µM (inactive) | 1.58 µM (inactive) | 0.192 µM (active) | 1.92 µM (inactive) | 1.53 µM (inactive) | 1.58 µM (inactive) | 0.675 µM (active) | 1.43 µM (inactive) | 0.593 µM (active) | 1.5 µM (inactive) | 1.79 µM (inactive) | 1 µM (active) |
| CCCCCC(=O)Nc1[nH]cnc1C(N)=O | > 100 µM (inactive) | > 100 µM (inactive) | > 100 µM (inactive) | > 100 µM (inactive) | > 100 µM (inactive) | > 100 µM (inactive) | > 100 µM (inactive) | > 100 µM (inactive) | > 100 µM (inactive) | > 100 µM (inactive) | > 100 µM (inactive) | > 100 µM (inactive) | > 100 µM (inactive) | > 100 µM (inactive) | > 100 µM (inactive) | > 100 µM (inactive) | 71.3 µM (inactive) | > 100 µM (inactive) | > 100 µM (inactive) | > 100 µM (inactive) |
| CC(=O)NC(CCC(=O)OC(C)(C)C)C(=O)NC(CCC(=O)OC(C)(C)C)C(=O)NC(Cc1ccc([N+](=O)[O-])cc1)C(=O)NC(CCCCNC(=O)OC(C)(C)C)C(=O)NC(CCCCNC(=O)OC(C)(C)C)C(=O)NCC(=O)O (stereo not given) (Ac-E(OtBu)E(OtBu)[Phe(4-NO2)]K(Boc)K(Boc)G-OH; configuration not given here) | > 100 µM (inactive) | 20.5 µM (inactive) | > 100 µM (inactive) | 75.2 µM (inactive) | > 100 µM (inactive) | > 100 µM (inactive) | > 100 µM (inactive) | > 100 µM (inactive) | > 100 µM (inactive) | > 100 µM (inactive) | > 100 µM (inactive) | > 100 µM (inactive) | > 100 µM (inactive) | > 100 µM (inactive) | 7.35 µM (inactive) | > 100 µM (inactive) | > 100 µM (inactive) | > 100 µM (inactive) | > 100 µM (inactive) | > 100 µM (inactive) |
